Seven molecules from ChEMBL document CHEMBL4270597, “Donepezil-butylated hydroxytoluene (BHT) hybrids as Anti-Alzheimer's disease agents with cholinergic, antioxidant, and neuroprotective properties” (Eur J Med Chem, 2018) can be followed below.

pIC50, pKi: −log10 of the molar value. Activity calls are given as the source filed them. The rule behind the calls is not given here.

One series concerns BV-2. In words: Antineuroinflammatory activity in mouse BV2 cells assessed as inhibition of LPS-induced NO production at 10 to 30 uM after 24 hrs by Griess assay. The class given is functional, cell-based. A general note: Nitrite, measured by Griess reagent, commonly stands in for NO production.
A short description of series [1]: Half life in Sprague-Dawley rat liver microsomes in presence of NADPH by UPLC/MS analysis.
For the next series, the system named is Mus musculus. The series is described as follows: Reversal of scopolamine-induced memory impairment in ICR mouse assessed as increase in step-through latency time at 5 mg/kg, po administered for 10 consecutive days and 60 mins prior to training trial followed by scopolamine challenge at 30 mins post dose measured 24 hrs after training trial by passive avoidance test. The class given is functional, organism-based.

Series [2] addresses Acetylcholinesterase (Electrophorus electricus) (UniProt O42275). In words: Inhibition of electric eel AChE at 100 uM using acetylthiocholine chloride as substrate incubated for 5 mins followed by substrate addition measured after 180 secs by Ellman's method relative to control. For orientation: DTNB colorimetry detects thiols as they appear.
Series [3] addresses Cholinesterase (Equus caballus) (UniProt P81908). The series is described as follows: Inhibition of equine serum BuChE at 100 uM using butyrylthiocholine iodide as substrate incubated for 5 mins followed by substrate addition measured after 180 secs by Ellman's method relative to control.
Series [4] has as its target T1, Acetylcholinesterase (Homo sapiens, UniProt P22303). The series is described as follows: Inhibition of human erythrocyte AChE at 100 uM using acetylthiocholine chloride as substrate incubated for 5 mins followed by substrate addition measured after 180 secs by Ellman's method relative to control.
Series [5] deals with T2, Cholinesterase (Homo sapiens, UniProt P06276). In words: Inhibition of human serum BuChE at 100 uM using butyrylthiocholine iodide as substrate incubated for 5 mins followed by substrate addition measured after 180 secs by Ellman's method relative to control.
Series [6] deals with T3, Amine oxidase [flavin-containing] B (Homo sapiens, UniProt P27338).
T3 sequence (P27338 whole entry): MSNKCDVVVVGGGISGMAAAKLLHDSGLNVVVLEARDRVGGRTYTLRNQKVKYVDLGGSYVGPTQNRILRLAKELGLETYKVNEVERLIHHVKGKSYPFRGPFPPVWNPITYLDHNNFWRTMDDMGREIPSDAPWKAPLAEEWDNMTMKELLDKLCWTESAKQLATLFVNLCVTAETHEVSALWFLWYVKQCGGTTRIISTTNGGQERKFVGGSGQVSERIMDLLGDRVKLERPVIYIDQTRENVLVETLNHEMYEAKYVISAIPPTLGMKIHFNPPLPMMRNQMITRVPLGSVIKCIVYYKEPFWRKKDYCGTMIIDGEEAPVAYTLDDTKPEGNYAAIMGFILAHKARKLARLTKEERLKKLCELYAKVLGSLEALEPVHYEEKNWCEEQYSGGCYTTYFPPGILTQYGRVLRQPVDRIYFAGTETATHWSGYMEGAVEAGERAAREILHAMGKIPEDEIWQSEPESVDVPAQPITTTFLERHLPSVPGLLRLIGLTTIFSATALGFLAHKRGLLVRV
In words: Inhibition of human MAO-B using p-tyramine as substrate incubated for 15 mins followed by substrate addition measured for 20 mins by fluorescence assay.

Series [7] has as its target T4, Amine oxidase [flavin-containing] A (Homo sapiens, UniProt P21397).
T4 sequence (P21397 whole entry): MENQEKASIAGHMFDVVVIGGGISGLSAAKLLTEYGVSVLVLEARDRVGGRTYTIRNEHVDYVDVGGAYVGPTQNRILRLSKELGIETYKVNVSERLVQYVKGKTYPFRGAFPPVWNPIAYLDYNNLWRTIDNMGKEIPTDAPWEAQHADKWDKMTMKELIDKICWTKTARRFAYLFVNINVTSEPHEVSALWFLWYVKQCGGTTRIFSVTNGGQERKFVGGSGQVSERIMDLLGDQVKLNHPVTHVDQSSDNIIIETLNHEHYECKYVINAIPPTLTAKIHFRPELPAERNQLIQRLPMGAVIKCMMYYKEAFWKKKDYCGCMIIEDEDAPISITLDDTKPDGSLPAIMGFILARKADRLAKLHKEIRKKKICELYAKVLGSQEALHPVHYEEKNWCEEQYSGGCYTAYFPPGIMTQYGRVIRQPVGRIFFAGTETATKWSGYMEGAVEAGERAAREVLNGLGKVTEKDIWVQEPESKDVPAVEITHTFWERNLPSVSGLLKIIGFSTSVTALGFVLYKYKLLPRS
In words: Inhibition of human MAO-A at 100 uM using p-tyramine as substrate incubated for 15 mins followed by substrate addition measured for 20 mins by fluorescence assay relative to control.

The nature of series [8]: Antioxidant activity assessed as DPPH radical scavenging activity measured after 30 mins incubation in dark by UV-Visible spectrophotometric analysis. It counts as functional.
Series [9] is described as follows: Antioxidant activity assessed as ABTS radical cation scavenging activity by measuring trolox equivalent antioxidant capacity measured at 6 mins. It counts as functional.
The nature of series [10]: Antioxidant activity assessed as trolox equivalent of AAPH-induced radical scavenging activity preincubated for 15 mins followed by AAPH addition measured every minute for 120 mins by ORAC-FL based fluorescein assay. It counts as functional.
Series [11] concerns the target Acetylcholinesterase (Electrophorus electricus, UniProt O42275). The series is described as follows: Inhibition of electric eel AChE using acetylthiocholine chloride as substrate incubated for 5 mins followed by substrate addition measured after 180 secs by Ellman's method.
Series [12] concerns the target Cholinesterase (Equus caballus, UniProt P81908). In words: Inhibition of equine serum BuChE using butyrylthiocholine iodide as substrate incubated for 5 mins followed by substrate addition measured after 180 secs by Ellman's method.
The target of series [13] is T1, Acetylcholinesterase. In words: Inhibition of human erythrocyte AChE using acetylthiocholine chloride as substrate incubated for 5 mins followed by substrate addition measured after 180 secs by Ellman's method.
The target in series [14] is T2, Cholinesterase. In words: Inhibition of human serum BuChE using butyrylthiocholine iodide as substrate incubated for 5 mins followed by substrate addition measured after 180 secs by Ellman's method. As to conditions: read-out: IC50.
The species entered for another series is Homo sapiens. In words: Selectivity index, ratio of IC50 for human serum BuChE to IC50 for human erythrocyte AChE.
For series [15], the target named is T4, Amine oxidase [flavin-containing] A. The series is described as follows: Inhibition of human MAO-A using p-tyramine as substrate incubated for 15 mins followed by substrate addition measured for 20 mins by fluorescence assay.
For series [16], the target named is T3, Amine oxidase [flavin-containing] B. The series is described as follows: Inhibition of human MAO-B at 100 uM using p-tyramine as substrate incubated for 15 mins followed by substrate addition measured for 20 mins by fluorescence assay relative to control.
The nature of series [17]: Antioxidant activity assessed as DPPH radical scavenging activity at 100 uM measured after 30 mins incubation in dark by UV-Visible spectrophotometric analysis relative to control. The class given is functional. (In general: The DPPH test is a chemical assay of radical scavenging.)
For series [18], the target named is T1, Acetylcholinesterase. The series is described as follows: Mixed-type inhibition of human AChE using acetylthiocholine chloride as substrate incubated for 5 mins followed by substrate addition by Lineweaver-Burk plot analysis.
The test system of series [19] is PC-12. In words: Neuroprotective activity against H2O2-induced oxidative stress in rat PC12 cells assessed as increase in cell viability pretreated for 4 hrs followed by H2O2 challenge measured after 24 hrs by MTT assay. The class given is functional, cell-based.
The subject of series [20] is PC-12. In words: Cytotoxicity against rat PC12 cells assessed as decrease in cell viability at 20 uM after 24 hrs by MTT assay. The class given is cell-based. As to conditions: pc-12, 24 h.
The test system of series [21] is PC-12. The series is described as follows: Cytotoxicity against rat PC12 cells assessed as decrease in cell viability at 30 uM after 24 hrs by MTT assay. The class given is cell-based. To be noted: pc-12, 24 h.
Series [22] concerns the target Amyloid-beta precursor protein (Homo sapiens) (UniProt P05067). The series is described as follows: Inhibition of AChE-induced amyloid beta 40 (unknown origin) aggregation at 100 uM by thioflavin-T fluorescence assay relative to control.
For series [23] the target is unchanged. In words: Inhibition of self-induced amyloid beta 42 (unknown origin) aggregation at 20 uM incubated for 46 to 48 hrs by thioflavin-T fluorescence assay relative to control.

A word on the inhibition: it is how much of the control response was suppressed. As a reminder, the half-life is the time in which the quantity being followed falls by half. Broadly, the pIC50 is the IC50 on a negative log10 scale, so that one unit is a factor of ten. By pKi is commonly meant −log10 of the Ki, conventionally taken in molar units. A high value points to a small Ki.

Sequence of Cholinesterase (Equus caballus) (P81908 whole entry): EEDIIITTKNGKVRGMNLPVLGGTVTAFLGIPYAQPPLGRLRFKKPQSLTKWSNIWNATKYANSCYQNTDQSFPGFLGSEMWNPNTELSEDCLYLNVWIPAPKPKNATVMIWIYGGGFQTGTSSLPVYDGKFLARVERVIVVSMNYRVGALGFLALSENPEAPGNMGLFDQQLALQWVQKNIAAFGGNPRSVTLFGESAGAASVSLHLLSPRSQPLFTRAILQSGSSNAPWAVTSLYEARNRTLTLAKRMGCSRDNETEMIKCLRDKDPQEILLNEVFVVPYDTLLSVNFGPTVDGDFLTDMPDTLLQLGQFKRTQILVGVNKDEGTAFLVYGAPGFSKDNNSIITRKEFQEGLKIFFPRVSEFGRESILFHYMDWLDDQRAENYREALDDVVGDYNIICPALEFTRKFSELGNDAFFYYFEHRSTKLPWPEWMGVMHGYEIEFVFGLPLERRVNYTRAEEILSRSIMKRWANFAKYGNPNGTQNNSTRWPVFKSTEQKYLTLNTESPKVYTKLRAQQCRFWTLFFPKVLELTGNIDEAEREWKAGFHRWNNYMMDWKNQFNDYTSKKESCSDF
T1 sequence (P22303 whole entry): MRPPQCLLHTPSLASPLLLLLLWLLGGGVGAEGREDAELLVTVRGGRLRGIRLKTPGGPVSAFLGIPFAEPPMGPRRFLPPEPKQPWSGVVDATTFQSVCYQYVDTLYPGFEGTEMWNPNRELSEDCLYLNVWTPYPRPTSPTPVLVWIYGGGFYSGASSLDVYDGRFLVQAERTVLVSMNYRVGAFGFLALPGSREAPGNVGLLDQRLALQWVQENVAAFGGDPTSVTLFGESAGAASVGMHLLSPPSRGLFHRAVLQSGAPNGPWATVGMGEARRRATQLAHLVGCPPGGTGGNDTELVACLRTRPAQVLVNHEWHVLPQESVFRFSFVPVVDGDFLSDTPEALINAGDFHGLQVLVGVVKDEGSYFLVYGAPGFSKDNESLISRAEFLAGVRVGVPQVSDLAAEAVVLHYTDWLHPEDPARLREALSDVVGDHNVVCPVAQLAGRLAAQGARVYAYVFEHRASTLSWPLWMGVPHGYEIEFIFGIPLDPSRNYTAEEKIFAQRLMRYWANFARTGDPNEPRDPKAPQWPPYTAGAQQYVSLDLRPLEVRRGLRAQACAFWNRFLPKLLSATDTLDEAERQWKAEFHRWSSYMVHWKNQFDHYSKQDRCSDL
T2 sequence (P06276 whole entry): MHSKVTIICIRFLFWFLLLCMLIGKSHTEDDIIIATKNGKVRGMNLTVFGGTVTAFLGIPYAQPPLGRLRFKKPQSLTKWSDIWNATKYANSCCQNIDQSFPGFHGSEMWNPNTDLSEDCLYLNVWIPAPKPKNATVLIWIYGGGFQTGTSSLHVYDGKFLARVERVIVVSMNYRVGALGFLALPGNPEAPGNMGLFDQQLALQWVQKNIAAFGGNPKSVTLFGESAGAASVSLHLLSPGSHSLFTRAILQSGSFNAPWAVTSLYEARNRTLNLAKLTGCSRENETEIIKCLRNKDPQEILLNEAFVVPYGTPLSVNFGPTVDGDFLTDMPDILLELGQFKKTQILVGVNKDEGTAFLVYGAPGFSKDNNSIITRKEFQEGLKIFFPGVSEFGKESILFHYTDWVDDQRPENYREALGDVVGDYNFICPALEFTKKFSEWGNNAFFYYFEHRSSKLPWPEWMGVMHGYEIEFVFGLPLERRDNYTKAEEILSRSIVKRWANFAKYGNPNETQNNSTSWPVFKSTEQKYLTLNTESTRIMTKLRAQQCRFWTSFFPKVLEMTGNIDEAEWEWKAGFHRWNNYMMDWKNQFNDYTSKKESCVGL
Sequence of Acetylcholinesterase (Electrophorus electricus, UniProt O42275) (O42275 whole entry): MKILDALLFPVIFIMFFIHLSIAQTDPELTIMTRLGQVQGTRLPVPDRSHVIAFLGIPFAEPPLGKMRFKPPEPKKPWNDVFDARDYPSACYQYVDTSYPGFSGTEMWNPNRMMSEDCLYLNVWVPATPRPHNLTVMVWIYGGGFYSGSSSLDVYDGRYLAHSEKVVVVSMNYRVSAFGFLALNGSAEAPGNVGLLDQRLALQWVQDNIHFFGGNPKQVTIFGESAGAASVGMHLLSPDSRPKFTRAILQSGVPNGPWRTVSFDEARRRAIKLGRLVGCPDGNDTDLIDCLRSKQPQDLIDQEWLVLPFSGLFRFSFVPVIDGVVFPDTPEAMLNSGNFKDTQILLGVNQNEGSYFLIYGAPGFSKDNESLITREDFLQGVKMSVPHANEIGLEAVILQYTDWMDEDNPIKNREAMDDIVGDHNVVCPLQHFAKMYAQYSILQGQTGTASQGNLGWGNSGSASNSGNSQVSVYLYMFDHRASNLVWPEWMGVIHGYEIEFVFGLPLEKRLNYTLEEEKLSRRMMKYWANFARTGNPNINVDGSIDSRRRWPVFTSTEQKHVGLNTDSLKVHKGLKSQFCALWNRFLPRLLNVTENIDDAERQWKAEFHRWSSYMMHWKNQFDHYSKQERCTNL
Sequence of Acetylcholinesterase (Electrophorus electricus) (O42275 24-633 limits assumed): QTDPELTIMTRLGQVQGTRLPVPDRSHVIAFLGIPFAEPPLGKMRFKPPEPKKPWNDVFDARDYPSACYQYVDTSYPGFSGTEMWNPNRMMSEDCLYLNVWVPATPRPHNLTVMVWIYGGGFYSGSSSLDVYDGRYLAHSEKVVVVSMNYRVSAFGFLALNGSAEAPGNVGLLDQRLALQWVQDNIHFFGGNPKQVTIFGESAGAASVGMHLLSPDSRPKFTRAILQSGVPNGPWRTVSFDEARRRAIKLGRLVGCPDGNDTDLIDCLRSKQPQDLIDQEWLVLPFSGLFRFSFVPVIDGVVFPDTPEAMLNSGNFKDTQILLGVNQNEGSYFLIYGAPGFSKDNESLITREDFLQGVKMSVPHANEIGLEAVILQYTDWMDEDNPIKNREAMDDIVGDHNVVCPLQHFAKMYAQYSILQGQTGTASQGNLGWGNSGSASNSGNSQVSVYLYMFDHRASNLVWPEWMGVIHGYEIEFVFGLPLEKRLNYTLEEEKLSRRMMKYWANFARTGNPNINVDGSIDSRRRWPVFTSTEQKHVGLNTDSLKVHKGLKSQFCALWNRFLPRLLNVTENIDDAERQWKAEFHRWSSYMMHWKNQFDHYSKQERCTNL
Sequence of Amyloid-beta precursor protein (Homo sapiens) (P05067 whole entry): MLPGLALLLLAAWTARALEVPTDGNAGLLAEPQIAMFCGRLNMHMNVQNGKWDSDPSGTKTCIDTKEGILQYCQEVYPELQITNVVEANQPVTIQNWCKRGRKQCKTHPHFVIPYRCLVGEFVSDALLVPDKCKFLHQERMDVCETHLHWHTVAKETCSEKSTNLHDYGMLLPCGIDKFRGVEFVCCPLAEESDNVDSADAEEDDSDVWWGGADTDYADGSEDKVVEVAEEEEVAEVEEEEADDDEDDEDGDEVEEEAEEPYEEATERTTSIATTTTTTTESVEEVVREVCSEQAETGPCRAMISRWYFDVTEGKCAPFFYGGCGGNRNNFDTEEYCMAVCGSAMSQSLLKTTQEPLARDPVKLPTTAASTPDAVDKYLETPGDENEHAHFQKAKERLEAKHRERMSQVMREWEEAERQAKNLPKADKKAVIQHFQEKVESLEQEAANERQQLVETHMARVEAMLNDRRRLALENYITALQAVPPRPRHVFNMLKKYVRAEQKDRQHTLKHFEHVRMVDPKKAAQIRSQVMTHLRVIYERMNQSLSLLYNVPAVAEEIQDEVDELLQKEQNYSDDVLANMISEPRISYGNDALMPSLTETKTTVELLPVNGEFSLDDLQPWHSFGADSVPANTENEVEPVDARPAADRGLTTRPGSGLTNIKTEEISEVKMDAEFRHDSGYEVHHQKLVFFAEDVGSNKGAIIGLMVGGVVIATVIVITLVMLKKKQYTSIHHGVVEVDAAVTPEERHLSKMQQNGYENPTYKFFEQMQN
Sequence of Cholinesterase (Equus caballus, UniProt P81908) (P81908 whole entry): as the sequence (P81908 whole entry) above

Take `COc1cc2c(cc1OC)C(=O)C(CC1CCN(Cc3ccccc3)CC1)C2` (configuration not stated) [DONEPEZIL]: the inhibition entry in the series with BV-2 was “inactive”. The half-life in series [1] (microsomes) was 1.21 h. Further, the outcome in the series on Mus musculus was Active.
Turning to `CC(C)(C)c1cc(CCC(=O)NCC2CCN(Cc3ccccc3)CC2)cc(C(C)(C)C)c1O`, the inhibition worked out at 27.4% in [2], 14.6% in series [3], 12.6% on Acetylcholinesterase [4] and 14% on Cholinesterase [5]. The pIC50 was 4.05 in series [6] and 4.20 in series [8]. For the same molecule, in [7], the inhibition at 100 µM stood at 38.4%. In addition, the Activity (mmolequiv/mmol) in series [9] was 0.63; in [10], 0.97.
`CC(C)(C)c1cc(C(=O)CNCC2CCN(Cc3ccccc3)CC2)cc(C(C)(C)C)c1O`: the pIC50 on Acetylcholinesterase [11] was 5.19; on Cholinesterase [12], 5.27; on Acetylcholinesterase [13] it was 5.61; at Cholinesterase [14], 5.02; in series [15] it was 4.38. In the series filed under Homo sapiens, the Ratio IC50 came out at 4. Also, the inhibition at 100 µM in [16] came out at 42%. Further, the Activity in series [17] was 24.2%. Also, the Activity (mmolequiv/mmol) in series [9] came to 0.28; in series [10] it was 0.36.
For `C[C@]12CC[C@H]3[C@@H](CCC4=CC(=O)CC[C@@]43C)[C@@H]1CC[C@@H]2O` [TESTOSTERONE], in [1] (liver microsomes), the half-life was under 0.0833 h.
Take `CC(C)(C)c1cc(/C=C/C(=O)NCCC2CCN(Cc3ccccc3)CC2)cc(C(C)(C)C)c1O`: the pIC50 against Acetylcholinesterase [11] was 6.28; against Acetylcholinesterase [13], 5.65; at Cholinesterase [14], 4.07; in [15] it was 4.21; in series [6], 5.07; in series [8], 4.09. Further, the inhibition was 48% in [3], 38.4% in series [22] and 43.5 to 56.7% in series [23]. Besides, the Ratio IC50 in the series listed under Homo sapiens is 38. Also, the pKi on Acetylcholinesterase [18] was 5.49. Further, the Activity result with PC-12 [19] is “Dose-dependent effect”; in the series on PC-12 [20], “Non-Toxic”; with PC-12 [21], “Toxic”. Also, the Activity (mmolequiv/mmol) in series [9] turned out to be 0.91; in series [10] it was 1.52.
Take `CC(C)(C)c1cc(C(=O)NCC2CCN(Cc3ccccc3)CC2)cc(C(C)(C)C)c1O`: the inhibition in [2] came out at 38.1%; in series [3], 8.61%; on Acetylcholinesterase [4] it was 15.7%; at Cholinesterase [5], 23.1%. In addition, the inhibition at 100 µM in series [7] was determined as 15.8%; in series [16], 16.1%. For the same molecule, in [17], the Activity amounted to 48.2%. Also, the figures for the Activity (mmolequiv/mmol) in [9] and in [10] were 0.65 and 1.47, respectively.
On to `CC(C)(C)c1cc(C(=O)NC2CCN(Cc3ccccc3)CC2)cc(C(C)(C)C)c1O`, for which the pIC50 against Acetylcholinesterase [11] was 4.25; in series [6], 4.07. Also, the inhibition in series [3] was determined as 34.6%; on Acetylcholinesterase [4], 20.1%; against Cholinesterase [5], 19.6%. The molecule also displayed an inhibition at 100 µM in series [7] of 49.2%. Besides, the Activity in series [17] worked out at 47.4%. Moreover, the figures for the Activity (mmolequiv/mmol) in series [9] and in [10] were 0.74 and 1.53, respectively.
